tested on: S. aureus ATCC 27660; assay: NCCLS broth microdilution MIC; type: cell-based, Staphylococcus aureus; settings: Col. A = S. aureus ATCC 27660 (MRSA)
From the text: (§1) In vitro antibacterial activity data were collected for the following Gram-positive bacteria: Staphylococcus aureus (ATCC 27660, ATCC 33591 and ATCC 43300, all methicillin resistant strains (MRSA's)); Streptococcus pneumoniae (ATCC 51422, a penicillin resistant strain (PRSP)), Enterococcus faecium (ATCC 51559, and/or a vancomycin resistant strain (VRE)). Additionally, antifungal activity data were collected for Candida albicans (ATCC 38247). Minimal inhibition concentrations (MIC's) were determined using the National Committee for Clinical Laboratory Standards (NCCLS) broth microdilution assay in microtiter plates, as set forth in: (1) the guidelines of the National Committee for Clinical Laboratory Standards (NCCLS) Document M7-A4 (NCCLS, 1997); (2) the guidelines of the National Committee for Clinical Laboratory Standards (NCCLS) Document M11-A4 (NCCLS, 1997); and (3) the guidelines and reference method of the National Committee for Clinical Laboratory Standards (NCCLS) Document M27-T (NCCLS, 1995). For antifungal essays, the method recommended in Murray, PR., 1995 Manual of Clinical Microbiology (ASM Press, Washington, D.C.), was employed.

SMILES	Minimum Inhibitory Concentration (MIC)
CCN(CC)CCCNC(=O)CCNC(=O)c1cc(NC(=O)c2cc(NC(=O)CCNC(=O)c3cc(NC(=O)c4cc(NC(=O)c5cc(Br)c(Br)s5)cn4C)cn3C)cn2C)cn1C [Compound 4]	++ (++ = MIC ≦ 1)
Cn1cc(NC(=O)c2cc(NC(=O)c3cc(NC(=O)c4ccc(F)cc4F)cn3C)cn2C)cc1C(=O)NCCN1CCCCCC1 [Compound 15]	++ (++ = MIC ≦ 1)
CC(C)N(CCNC(=O)CCNC(=O)c1cc(NC(=O)c2cc(NC(=O)CCNC(=O)c3cc(NC(=O)c4cc(NC(=O)c5cc(Br)c(Br)s5)cn4C)cn3C)cn2C)cn1C)C(C)C [Compound 2]	++ (++ = MIC ≦ 1)

tested on: S. aureus ATCC 33591; assay: NCCLS broth microdilution MIC; type: cell-based, Staphylococcus aureus; settings: Col. B = S. aureus ATCC 33591 (MRSA)
From the text: as §1

SMILES	Minimum Inhibitory Concentration (MIC)
CCN(CC)CCCNC(=O)CCNC(=O)c1cc(NC(=O)c2cc(NC(=O)CCNC(=O)c3cc(NC(=O)c4cc(NC(=O)c5cc(Br)c(Br)s5)cn4C)cn3C)cn2C)cn1C [Compound 4]	++ (++ = MIC ≦ 1)
Cn1cc(NC(=O)c2cc(NC(=O)c3cc(NC(=O)c4ccc(F)cc4F)cn3C)cn2C)cc1C(=O)NCCN1CCCCCC1 [Compound 15]	− (− = MIC > 2)
CC(C)N(CCNC(=O)CCNC(=O)c1cc(NC(=O)c2cc(NC(=O)CCNC(=O)c3cc(NC(=O)c4cc(NC(=O)c5cc(Br)c(Br)s5)cn4C)cn3C)cn2C)cn1C)C(C)C [Compound 2]	− (− = MIC > 2)

tested on: Enterococcus faecium ATCC 51559; assay: NCCLS broth microdilution MIC; type: cell-based; settings: Col. D = E. faecium ATCC 51559 (VRE)
From the text: as §1

SMILES	Minimum Inhibitory Concentration (MIC)
CCN(CC)CCCNC(=O)CCNC(=O)c1cc(NC(=O)c2cc(NC(=O)CCNC(=O)c3cc(NC(=O)c4cc(NC(=O)c5cc(Br)c(Br)s5)cn4C)cn3C)cn2C)cn1C [Compound 4]	− (− = MIC > 2)
Cn1cc(NC(=O)c2cc(NC(=O)c3cc(NC(=O)c4ccc(F)cc4F)cn3C)cn2C)cc1C(=O)NCCN1CCCCCC1 [Compound 15]	+ (+ = MIC ≦ 2)
CC(C)N(CCNC(=O)CCNC(=O)c1cc(NC(=O)c2cc(NC(=O)CCNC(=O)c3cc(NC(=O)c4cc(NC(=O)c5cc(Br)c(Br)s5)cn4C)cn3C)cn2C)cn1C)C(C)C [Compound 2]	+ (+ = MIC ≦ 2)

tested on: Streptococcus pneumoniae ATCC 51422; assay: NCCLS broth microdilution MIC; type: cell-based; settings: Col. E = S. pneumoniae ATCC 51422 (PRSP)
From the text: as §1

SMILES	Minimum Inhibitory Concentration (MIC)
CCN(CC)CCCNC(=O)CCNC(=O)c1cc(NC(=O)c2cc(NC(=O)CCNC(=O)c3cc(NC(=O)c4cc(NC(=O)c5cc(Br)c(Br)s5)cn4C)cn3C)cn2C)cn1C [Compound 4]	++ (++ = MIC ≦ 1)
Cn1cc(NC(=O)c2cc(NC(=O)c3cc(NC(=O)c4ccc(F)cc4F)cn3C)cn2C)cc1C(=O)NCCN1CCCCCC1 [Compound 15]	++ (++ = MIC ≦ 1)
CC(C)N(CCNC(=O)CCNC(=O)c1cc(NC(=O)c2cc(NC(=O)CCNC(=O)c3cc(NC(=O)c4cc(NC(=O)c5cc(Br)c(Br)s5)cn4C)cn3C)cn2C)cn1C)C(C)C [Compound 2]	++ (++ = MIC ≦ 1)

tested on: Candida albicans ATCC 38247; assay: Antifungal MIC; type: cell-based; settings: Col. F = C. albicans ATCC 38247
From the text: as §1

SMILES	Minimum Inhibitory Concentration (MIC) [µg/mL]
CCN(CC)CCCNC(=O)CCNC(=O)c1cc(NC(=O)c2cc(NC(=O)CCNC(=O)c3cc(NC(=O)c4cc(NC(=O)c5cc(Br)c(Br)s5)cn4C)cn3C)cn2C)cn1C [Compound 4]	>32
Cn1cc(NC(=O)c2cc(NC(=O)c3cc(NC(=O)c4ccc(F)cc4F)cn3C)cn2C)cc1C(=O)NCCN1CCCCCC1 [Compound 15]	8
CC(C)N(CCNC(=O)CCNC(=O)c1cc(NC(=O)c2cc(NC(=O)CCNC(=O)c3cc(NC(=O)c4cc(NC(=O)c5cc(Br)c(Br)s5)cn4C)cn3C)cn2C)cn1C)C(C)C [Compound 2]	>32

biological target: target sequence AATTAATCAT (352 bp fragment, Plasmid C); assay: Quantitative DNase I footprint titration; type: binding; settings: 352 bp C, 22° C., pH 7.0, read-out: Dissociation Constant Kd
From the text: (§2) Compounds (1) through (20) according to this invention were screened for their ability to bind to specified DNA target sequences, using DNase I footprinting. Generally, the procedure described in Dervan, WO 98/50582 (1998), was followed.
(§3) Three double stranded circular plasmids A, B, and C were used to prepare double stranded DNA-binding probes containing the target sequences for the DNase I footprint titration experiments. Plasmids A, B, and C had nucleotide sequences given by SEQ ID NO. I, SEQ ID NO. II, and SEQ ID NO. III, respectively.
(§4) The 3′-P32 end-labeled EcoRI/PvuII fragments from each plasmid were prepared by digesting the plasmids with EcoRI and PvuII with simultaneous fill-in using Sequenase v. 2.0, [alpha-P32]-deoxyadenosine-5′-triphosphate, and [alpha-P32]-thymidine-5′-triphosphate, and isolating the cloned fragments by nondenaturing gel electrophoresis. A and G sequencing reactions were carried out as described (See Maxam and Gilbert, Methods Enzymol., 1980, 65, 499-560; Iverson and Dervan, Methods Enzymol., 1987, 15, 7823-7830; Sambrook et al., 1989, Molecular Cloning, 2nd ed., Cold Spring Harbor Laboratory Press: Cold Spring Harbor, N.Y.) Standard methods were used for all DNA manipulations (Sambrook et al., ibid.) The cut sites for EcoRI and PvuII are indicated by bars in the respective maps of Plasmids A, B, and C in FIGS. 5, 6, and 7.
(§5) The 351 base pair dsDNA restriction fragment (SEQ ID NO. IV) of Plasmid A contained the target sequences AAAAAGCAAAAA, AAAAAGACAAAAA, and AAAAAGTACAAAAA. The 310 base pair dsDNA restriction fragment (SEQ ID NO. V) of Plasmid B contained the target sequences AGTACT, AATACT, and ATTACT. The 352 base pair dsDNA restriction fragment (SEQ ID NO. VI) of Plasmid C contained the target sequences TGACAATTAAT, GACAATTAATCA, AATTAATCAT, ACAATTA, and ACAATTAAT. These fragments were used for quantitative DNase I footprinting experiments. Compounds used in the method of this invention bind to at least one of the target sites with a equal to or less than 100 nM, preferably equal to or less than 50 nM, and more preferably equal to or less than 20 nM. The target sequences were selected for the identity with, or similarity to, promoter sites for bacterial genes.
(§6) Quantitative DNase I footprint titration experiments were carried out as described previously (Dervan, WO 98/50582, 1998) with the following changes. All reactions were carried out in a total volume of 400 μL, with compound stock solution or water added to 15,000 cpm radiolabeled restriction fragment affording final solution conditions of 10 mM Tris HCl, 10 mM KCl, 10 mM MgCl2, 5 mM CaCl2, pH 7.0 and 0.01 nM, 0.1 nM, 1.0 nM, 10.0 nM compound or no compound for reference lanes. The compounds were allowed to equilbrate at 22° C. for 16 h. Footprinting reactions were initiated with addition of 10 μL of a DNase I stock solution (at the appropriate concentration to give ˜50% intact DNA) containing 1 mM DTT and allowed to proceed for 7 min at 22° C. The reactions were stopped, ethanol precipitated, resuspended in loading buffer, heat denatured, and placed on ice as described previously (Dervan WO 98/50582, 1998). The reaction products were separated on a precast 8% polyacrylamide denaturing sequencing Castaway gel with 32 preformed wells from Stratagene in 1×TBE at 2000 V. Gels were dried according to the manufacturer and exposed to a storage phosphor screen (Molecular Dynamics). Quantitation and data analysis were carried out as described in Dervan, WO 98/50582, 1998.

SMILES	Kd [nM]
Cn1cc(NC(=O)c2cc(NC(=O)c3cc(NC(=O)c4ccc(F)cc4F)cn3C)cn2C)cc1C(=O)NCCN1CCCCCC1 [Compound 15]	2

biological target: target sequence TGACAATTAAT (352 bp fragment, Plasmid C); assay: Quantitative DNase I footprint titration; type: binding; settings: 352 bp C, 22° C., pH 7.0, read-out: Dissociation Constant Kd
From the text: as §2, §3, §4, §5, §6

SMILES	Kd [nM]
CCN(CC)CCCNC(=O)CCNC(=O)c1cc(NC(=O)c2cc(NC(=O)CCNC(=O)c3cc(NC(=O)c4cc(NC(=O)c5cc(Br)c(Br)s5)cn4C)cn3C)cn2C)cn1C [Compound 4]	10
CC(C)N(CCNC(=O)CCNC(=O)c1cc(NC(=O)c2cc(NC(=O)CCNC(=O)c3cc(NC(=O)c4cc(NC(=O)c5cc(Br)c(Br)s5)cn4C)cn3C)cn2C)cn1C)C(C)C [Compound 2]	10

biological target: target sequence […] (351 bp fragment, Plasmid A); assay: Quantitative DNase I footprint titration; type: binding; settings: AAAAAGTACAAAAA, 351 bp A; 22° C., pH 7.0; read-out: Dissociation Constant Kd
From the text: as §2, §3, §4, §5, §6

SMILES	Kd [nM]
CCN(CC)CCCNC(=O)CCNC(=O)c1cc(NC(=O)c2cc(NC(=O)CCNC(=O)c3cc(NC(=O)c4cc(NC(=O)c5cc(Br)c(Br)s5)cn4C)cn3C)cn2C)cn1C [Compound 4]	0.01
CC(C)N(CCNC(=O)CCNC(=O)c1cc(NC(=O)c2cc(NC(=O)CCNC(=O)c3cc(NC(=O)c4cc(NC(=O)c5cc(Br)c(Br)s5)cn4C)cn3C)cn2C)cn1C)C(C)C [Compound 2]	0.2
